Among the data in patent US11401270B2, “Alcoxyamino derivatives for treating pain and pain related conditions” (ESTEVE PHARMACEUTICALS, S.A., priority 2017, dated 2022) are Ki values, retold here.

Sequence of Human α2δ-1 subunit of Cav2.2 calcium channel (P54289 25-1103): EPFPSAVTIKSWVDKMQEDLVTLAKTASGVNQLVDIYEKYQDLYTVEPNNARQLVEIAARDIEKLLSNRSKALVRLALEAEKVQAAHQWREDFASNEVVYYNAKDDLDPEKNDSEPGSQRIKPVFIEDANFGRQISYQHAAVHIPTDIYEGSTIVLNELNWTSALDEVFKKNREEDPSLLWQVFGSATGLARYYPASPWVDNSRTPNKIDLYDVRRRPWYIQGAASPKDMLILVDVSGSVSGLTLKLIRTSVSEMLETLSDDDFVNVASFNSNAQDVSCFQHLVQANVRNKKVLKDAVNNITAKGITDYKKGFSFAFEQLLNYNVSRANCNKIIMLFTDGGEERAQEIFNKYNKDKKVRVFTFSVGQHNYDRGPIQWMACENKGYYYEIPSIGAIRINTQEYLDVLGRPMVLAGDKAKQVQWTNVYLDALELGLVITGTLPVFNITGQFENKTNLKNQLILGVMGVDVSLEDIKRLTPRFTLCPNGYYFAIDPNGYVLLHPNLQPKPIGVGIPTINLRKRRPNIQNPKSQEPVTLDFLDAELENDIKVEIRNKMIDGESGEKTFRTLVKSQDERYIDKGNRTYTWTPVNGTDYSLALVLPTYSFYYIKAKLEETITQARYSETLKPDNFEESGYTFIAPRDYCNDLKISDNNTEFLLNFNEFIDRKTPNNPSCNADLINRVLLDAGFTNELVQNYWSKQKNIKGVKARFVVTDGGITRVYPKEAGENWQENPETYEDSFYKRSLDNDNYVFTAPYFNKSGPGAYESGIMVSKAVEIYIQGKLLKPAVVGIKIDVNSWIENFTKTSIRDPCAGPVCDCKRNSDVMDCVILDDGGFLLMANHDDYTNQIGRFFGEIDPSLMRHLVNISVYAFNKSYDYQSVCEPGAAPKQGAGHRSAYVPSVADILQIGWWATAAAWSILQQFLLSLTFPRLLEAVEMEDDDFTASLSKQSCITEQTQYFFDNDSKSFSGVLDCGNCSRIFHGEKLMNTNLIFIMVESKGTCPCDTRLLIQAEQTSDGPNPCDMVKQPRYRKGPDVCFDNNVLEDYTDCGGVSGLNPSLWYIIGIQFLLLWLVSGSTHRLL

One assay deals with Human α2δ-1 subunit of Cav2.2 calcium channel (Homo sapiens (Human), UniProt P54289). The assay can be described thus: Binding Assay to Human α2δ-1 Subunit of Cav2.2 Calcium Channel. Conditions: Table 1; human α2δ-1 enriched membranes, 15 nM [3H]-Gabapentin; read-out: Ki(nM) alpha2delta Hum. On the procedure:
Binding Assay to Human α2δ-1 Subunit of Cav2.2 Calcium Channel.
NSB (non specific binding) was measured by adding 10 μM pregabalin. The binding of the test compound was measured in five different concentrations. After 60 min incubation at 27° C., binding reaction was terminated by filtering through Multiscreen GF/C (Millipore) presoaked in 0.5% polyethyleneimine in Vacuum Manifold Station, followed by 3 washes with ice-cold filtration buffer containing 50 mM Tris-HCl, pH 7.4.
Filter plates were dried at 60° C. for 1 hour and 30 μl of scintillation cocktail were added to each well before radioactivity reading.
Regarding `CNCC[C@H](Oc1ccc(CN2CCN(C)c3ncccc3C2=O)c(C2CC2)c1)c1cccs1` [Example 128, (S)-4-(2-cyclopropyl-4-(3-(methylamino)-1-(thiophen-2-yl)propoxy)benzyl)-1-methyl-1,2,3,4-tetrahydro-5H-pyrido[2,3-e][1,4]diazepin-5-one], the Ki was in the range of 100 to 500 nM.
`CNCCC(OCc1ccc(CN2CCN(C)c3ccccc3C2=O)cc1)c1ccccc1` (stereo not shown) [Example 88, 1-Methyl-4-(4-((3-(methylamino)-1-phenylpropoxy)methyl)benzyl)-1,2,3,4-tetrahydro-5H-benzo[e][1,4]diazepin-5-one]: the Ki was above 3000 nM.
Still for that read-out and setting: in the case of `CNCCC(Oc1cccc(N2CCN(C)CCC2=O)c1)c1ccccc1` (stereo not shown) [Example 32, 1-Methyl-4-(3-(3-(methylamino)-1-phenylpropoxy)phenyl)-1,4-diazepan-5-one] it was above 3000 nM; in that of `CNCCC(OCc1cccc(N2CCN(C)c3cc(F)cnc3C2=O)c1)c1ccccc1` (stereo not shown) [Example 27, 8-Fluoro-1-methyl-4-(3-((3-(methylamino)-1-phenylpropoxy)methyl)phenyl)-1,2,3,4-tetrahydro-5H-pyrido[3,2-e][1,4]diazepin-5-one], 100 to 500 nM.
For the compound `CCNC[C@@H]1CC(=O)N(c2cccc(O[C@@H](CCNC)c3ccccc3)c2)CCN1C` [Example 23, (S)-7-((ethylamino)methyl)-1-methyl-4-(3-((S)-3-(methylamino)-1-phenylpropoxy)phenyl)-1,4-diazepan-5-one], the Ki was above 3000 nM.
Still for that read-out and setting: in the case of `CNCCC(OCc1ccc(N2CCN(C)c3ccccc3C2=O)cc1)c1ccccc1` (stereo not shown) [Example 46, 1-Methyl-4-(4-((3-(methylamino)-1-phenylpropoxy)methyl)phenyl)-1,2,3,4-tetrahydro-5H-benzo[e][1,4]diazepin-5-one] it was above 3000 nM.
Still for that read-out and setting: in the case of `CNCCC(OCc1cccc(N2CCCCCC2=O)c1)c1ccccc1` (stereo not shown) [Example 35, 1-(3-((3-(Methylamino)-1-phenylpropoxy)methyl)phenyl)azepan-2-one] it was 500 to 3000 nM; in that of `CNCC[C@H](OCc1cccc(N2C[C@@H]3CCCN3c3ccccc3C2=O)c1)c1ccccc1` [Example 30, (S)-5-(3-(((S)-3-(methylamino)-1-phenylpropoxy)methyl)phenyl)-1,2,3,3a,4,5-hexahydro-6H-benzo[f]pyrrolo[1,2-a][1,4]diazepin-6-one], above 3000 nM; in that of `CNCC[C@H](Oc1ccc(CN2CCN(C)c3ncccc3C2=O)c(C2CC2)c1)c1ccccc1` [Example 133, (S)-4-(2-cyclopropyl-4-(3-(methylamino)-1-phenylpropoxy)benzyl)-1-methyl-1,2,3,4-tetrahydro-5H-pyrido[2,3-e][1,4]diazepin-5-one], 100 to 500 nM.
`CNCCC(Oc1cccc(N2CCN(C)c3ccccc3C2=O)c1)c1cccs1` (stereo not shown) [Example 53, 1-Methyl-4-(3-(3-(methylamino)-1-(thiophen-2-yl)propoxy)phenyl)-1,2,3,4-tetrahydro-5H-benzo[e][1,4]diazepin-5-one]: the Ki was in the range of 500 to 3000 nM.
Still for that read-out and setting: in the case of `CNCC[C@@H](Oc1ccc(CN2CCN(C)c3ncccc3C2=O)c(F)c1)c1cccc(F)c1` [Example 135, (R)-4-(2-fluoro-4-(1-(3-fiuorophenyl)-3-(methylamino)propoxy)benzyl)-1-methyl-1,2,3,4-tetrahydro-5H-pyrido[2,3-e][1,4]diazepin-5-one] it was 500 to 3000 nM; in that of `CNCC[C@H](Oc1ccc(CN2CCN(C)c3nc(N(C)C)ccc3C2=O)cc1)c1cccs1` [Example 95, (S)-8-(dimethylamino)-1-methyl-4-(4-(3-(methylamino)-1-(thiophen-2-yl)propoxy)benzyl)-1,2,3.4-tetrahydro-5H-pyrido[2,3-e][1,4]diazepin-5-one], 500 to 3000 nM.
Take `CNCCC(Oc1ccc(CN2CCCN(C)CC2)cc1)c1cccs1` (stereo not shown) [Example 102, N-methyl-3-(4-((4-methyl-1,4-diazepan-1-yl)methyl)phenoxy)-3-(thiophen-2-yl)propan-1-amine]: the Ki is above 3000 nM.
Still for that read-out and setting: in the case of `CNCCC(Oc1cccc(N2CCCN(C)CC2=O)c1)c1cccs1` (stereo not shown) [Example 52, 4-Methyl-1-(3-(3-(methylamino)-1-(thiophen-2-yl)procoxy)phenyl)-1,4-diazepan-2-one] it was above 3000 nM; in that of `CNCCC(OCc1cccc(CN2CCN(C)c3ccccc3C2=O)c1)c1ccccc1` (stereo not shown) [Example 89, 1-Methyl-4-(3-((3-(methylamino)-1-phenylpropoxy)methyl)benzyl)-1,2,3,4-tetrahydro-5H-benzo[e][1,4]diazepin-5-one], above 3000 nM.
With `CNCCC(OCc1cccc(N2CCN(C)c3ccccc3C2=O)c1)c1ccccc1F` (stereo not shown) [Example 39, 4-(3-((1-(2-Fluorophenyl)-3-(methylamino)propoxy)methyl)phenyl)-1-methyl-1,2,3,4-tetrahydro-5H-benzo[e][1,4]diazepin-5-one], the Ki fell in the range of 100 to 500 nM.
Same read-out and setting: in the case of `CNCC[C@@H](OCc1cccc(N2CCN(C)c3ccccc3C2=O)c1)c1cccc(F)c1` [Example 41, (R)-4-(3-((1-(3-fluorophenyl)-3-(methylamino)propoxy)methyl)phenyl)-1-methyl-1,2,3,4-tetrahydro-5H-benzo[e][1,4]diazepin-5-one] it was above 3000 nM.
The same measure, in the same setting: then `CCN[C@H]1CCCCN(c2cccc(O[C@@H](CCNC)c3cccs3)c2)C1=O` [Example 19, (S)-3-(ethylamino)-1-(3-((S)-3-(methylamino)-1-(thiophen-2-yl)propoxy)phenyl)azepan-2-one], with 500 to 3000 nM; and `CNCCC(OCc1cccc(N2CCCCCC2=O)c1)c1cccs1` (stereo not shown) [Example 16, 1-(3-((3-(Methylamino)-1-(thiophen-2-yl)propoxy)methyl)phenyl)azepan-2-one], with 500 to 3000 nM.
For `CCNCCC(OCc1cccc(N2CCN(C)c3ccccc3C2=O)c1)c1ccccc1` (stereo not shown) [Example 43, 4-(3-((3-(Ethylamino)-1-phenylpropoxy)methyl)phenyl)-1-methyl-1,2,3,4-tetrahydro-5H-benzo[e][1,4]diazepin-5-one], the Ki lay within 100 to 500 nM.
For `CNCC[C@H](OCc1cccc(N2CCN(C)c3ccccc3C2=O)c1)c1cccs1` [Example 15, (S)-1-methyl-4-(3-((3-(methylamino)-1-(thiophen-2-yl)propoxy)methyl)phenyl)-1,2,3,4-tetrahydro-5H-benzo[e][1,4]diazepin-5-one], the Ki was above 3000 nM.
Regarding `CNCC[C@@H](Oc1ccc(CN2CCN(C)c3ncccc3C2=O)cc1)c1cccc(F)c1` [Example 150, (R)-(4-(1-(3-fluorophenyl)-3-(methylamino)propoxy)benzyl)-1-methyl-1,2,3,4-tetrahydro-5H-pyrido[2,3-e][1,4]diazepin-5-one], the Ki was 500 to 3000 nM.
Same read-out and setting: in the case of `CN1CCN(c2cccc(COC(CCNCCF)c3ccccc3)c2)C(=O)c2ccccc21` (stereo not shown) [Example 44, 4-(3-((3-((2-Fluoroethyl)amino)-1-phenylpropoxy)methyl)phenyl)-1-methyl-1,2,3,4-tetrahydro-5H-benzo[e][1,4]diazepin-5-one] it was 500 to 3000 nM; in that of `CNCCC(OCc1cccc(N2CCCN(C)CC2=O)c1)c1ccccc1` (stereo not shown) [Example 36, 4-Methyl-1-(3-((3-(methylamino)-1-phenylpropoxy)methyl)phenyl)-1,4-diazepan-2-one], 500 to 3000 nM; in that of `CNCC[C@@H](OCc1cccc(N2CCN(C)c3ccccc3C2=O)c1)c1cccs1` [Example 14, (R)-1-methyl-4-(3-((3-(methylamino)-1-(thiophen-2-yl)propoxy)methyl)phenyl)-1,2,3,4-tetrahydro-5H-benzo[e][1,4]diazepin-5-one], 100 to 500 nM.
On the same count and under the same terms, then `CNCCC(Oc1cccc(N2CC(=O)N(C)c3ccccc3C2=O)c1)c1cccs1` (stereo not shown) [Example 51, 1-Methyl-4-(3-(3-(methylamino)-1-(thiophen-2-yl)propoxy)phenyl)-3,4-dihydro-1H-benzo[e][1,4]diazepine-2,5-dione], with above 3000 nM; and `CNCC[C@H](Oc1ccc(CN2CCCn3nc(C)cc3C2=O)c(C)c1)c1cccs1` [Example 124, (S)-2-methyl-5-(2-methyl-4-(3-(methylamino)-1-(thiophen-2-yl)propoxy)benzyl)-5,6,7,8-tetrahydro-4H-pyrazolo[1,5-a][1,4]diazepin-4-one], with below 100 nM.
With `CNCC[C@H](Oc1ccc(CN2CCCn3cccc3C2=O)cc1)c1cccs1` [Example 105, (S)-2-(4-(3-(methylamino)-1-(thiophen-2-yl)propoxy)benzyl)-2,3,4,5-tetrahydro-1H-pyrrolo[1,2-a][1,4]diazepin-1-one], the Ki was in the range of 500 to 3000 nM.
Same read-out and setting: in the case of `CNCCC(Oc1cccc(CN2CCN(C)c3ccccc3C2=O)c1)c1ccccc1` (stereo not shown) [Example 113, 1-Methyl-4-(3-(3-(methylamino)-1-phenylpropoxy)benzyl)-1,2,3,4-tetrahydro-5H-benzo[e][1,4]diazepin-5-one] it was above 3000 nM; in that of `CNCCC(Oc1cccc(N2CCCCCC2=O)c1)c1ccccc1` (stereo not shown) [Example 33, 1-(3-(3-(Methylamino)-1-phenylpropoxy)phenyl)azapan-2-one], above 3000 nM.
Take `CNCCC(OCc1cccc(N2CCN(C)c3cccnc3C2=O)c1)c1ccccc1` (stereo not shown) [Example 26, 1-Methyl-4-(3-((3-(methylamino)-1-phenylpropoxy)methyl)phenyl)-1,2,3,4-tetrahydro-5H-pyrido[3,2-e][1,4]diazepin-5-one]: the Ki lay in the range of 500 to 3000 nM.
Still for that read-out and setting: then `CNCC(OCc1ccc(CN2CCN(C)c3ccccc3C2=O)cc1)c1ccccc1` (stereo not shown) [Example 109, 1-Methyl-4-(4-((2-(methylamino)-1-phenylethoxy)methyl)benzyl)-1,2,3,4-tetrahydro-5H-benzo[e][1,4]diazepin-5-one], with above 3000 nM.

Still in this assay, the particulars now being: Table 2, dual compounds; human α2δ-1 enriched membranes, 15 nM [3H]-Gabapentin; read-out: Ki(nM) alpha2delta Hum.
For `CNCC[C@@H](Oc1ccc(CN2CCN(C)c3ncccc3C2=O)cc1)c1cccc(F)c1` [Example 150, (R)-(4-(1-(3-fluorophenyl)-3-(methylamino)propoxy)benzyl)-1-methyl-1,2,3,4-tetrahydro-5H-pyrido[2,3-e][1,4]diazepin-5-one], the Ki lay within 500 to 3000 nM.
On the same count and under the same terms, in the case of `CNCC[C@H](Oc1ccc(CN2CCCn3cccc3C2=O)cc1)c1cccs1` [Example 105, (S)-2-(4-(3-(methylamino)-1-(thiophen-2-yl)propoxy)benzyl)-2,3,4,5-tetrahydro-1H-pyrrolo[1,2-a][1,4]diazepin-1-one] it was 500 to 3000 nM.
